According to ChEMBL document CHEMBL5728097, “Amino pyrazolopyrimidine compound used as neurotrophic factor tyrosine kinase receptor inhibitor” (2020):

Target: High affinity nerve growth factor receptor (Homo sapiens, UniProt P04629)
Assay: Inhibitory Activity Assay: TrkA, TrkB and TrkC:A testing platform for TrkA, TrkB and TrkC kinase activity was established based on Homogeneous Time-Resolved Fluorescence (HTRF) assay, and the activities of the compounds were tested using the platform. The compounds were subjected to three-fold gradient dilution with 100% DMSO with a starting concentration of 1 mM (11 concentrations in total). 4 μL of diluted sample for each concentration was added to 96 μL of reaction buffer (50 mM HEPES, pH7.4, 5 mM MgCl2, 1 mM NaVO3, 0.001% Tween-20, 0.01% BSA and 1 mM DTT) and mixed homogeneously to be used as a 4* compound. The reaction buffer was used to formulate 2* TrkA, TrkB and TrkC kinases (purchased from Carna Biosciences 08-186, 08-187, 08-197, and the final concentrations thereof were 0.5 nM, 0.1 nM, and 1 nM, respectively) and 4* substrate mixture (ATP+TK peptide) (wherein the final concentrations of ATP were 40 μM, 50 μM, and 20 μM, respectively; TK peptide, HTRF® KinEASE™-TK, was purchased from Cisbio, and the final concentration thereof was 100 nM) for use. 2.5 μL of the 4* compound was added to a 384-well plate (OptiPlate-384, purchased from PerkinElmer), and then 5 μL of the 2* TrkA, TrkB and TrkC kinases were added, and mixed homogeneously by centrifugation. Then 2.5 μL of the 4* substrate mixture was added to initiate the reaction (the total reaction volume is 10 μL). The 384-well plate was placed in an incubator and incubated for 60 min at 23° C. Then the reaction was terminated by adding 5 μL of Eu3+ cryptate-labeled anti-phosphotyrosine antibody (HTRF® KinEASE™-TK, purchased from Cisbio), and 5 μL of Streptavidin-XL-665 (HTRF® KinEASE™-TK, purchased from Cisbio). After incubated for 1 hr in the incubator, the fluorescence values were read on Envision (purchased from PerkinElmer).

Chain of High affinity nerve growth factor receptor (P04629 whole entry): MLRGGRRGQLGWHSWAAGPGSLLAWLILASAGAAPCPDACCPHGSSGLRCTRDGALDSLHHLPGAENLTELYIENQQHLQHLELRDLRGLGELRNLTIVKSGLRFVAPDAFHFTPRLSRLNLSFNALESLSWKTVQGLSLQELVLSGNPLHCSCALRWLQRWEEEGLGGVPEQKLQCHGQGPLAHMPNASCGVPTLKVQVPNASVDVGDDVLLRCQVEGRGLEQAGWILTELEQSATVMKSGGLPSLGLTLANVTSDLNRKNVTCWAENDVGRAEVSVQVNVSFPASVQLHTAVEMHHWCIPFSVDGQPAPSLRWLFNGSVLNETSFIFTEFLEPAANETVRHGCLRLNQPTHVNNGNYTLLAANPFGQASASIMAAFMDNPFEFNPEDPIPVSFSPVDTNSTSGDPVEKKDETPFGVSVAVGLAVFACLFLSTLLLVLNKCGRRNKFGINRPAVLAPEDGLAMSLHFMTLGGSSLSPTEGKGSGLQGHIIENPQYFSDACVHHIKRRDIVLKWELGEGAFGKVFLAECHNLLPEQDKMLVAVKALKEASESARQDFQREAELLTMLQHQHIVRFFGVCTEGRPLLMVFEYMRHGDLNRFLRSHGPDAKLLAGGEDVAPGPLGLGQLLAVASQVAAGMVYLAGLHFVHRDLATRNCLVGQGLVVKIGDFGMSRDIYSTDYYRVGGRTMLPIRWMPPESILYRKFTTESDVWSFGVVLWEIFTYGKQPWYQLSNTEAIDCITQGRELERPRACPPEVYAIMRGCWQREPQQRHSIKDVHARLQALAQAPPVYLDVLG

Row | IC50 | SMILES
1 | < 25 nM | NC(=O)c1c(N)nn2ccc(N3C[C@@H](O)C[C@@H]3c3cc(F)ccc3F)nc12
2 | < 25 nM | CCOC(=O)c1c(N)nn2ccc(N3C[C@H](O)CC3c3cc(F)ccc3F)nc12 (stereo partly specified)
3 | < 25 nM | Nc1nn2ccc(N3CCC[C@@H]3c3cc(F)ccc3F)nc2c1Br
4 | < 1 nM | CC1(C)OCC(CONC(=O)c2c(N)nn3ccc(N4CCC[C@@H]4c4cc(F)ccc4F)nc23)O1 (stereo partly specified)
5 | < 1 nM | N#Cc1c(N)nn2ccc(N3C[C@@H](F)C[C@@H]3c3cc(F)ccc3F)nc12
6 | < 1 nM | CC(C)(CO)ONC(=O)c1c(N)nn2ccc(N3CCC[C@@H]3c3cc(F)ccc3F)nc12
7 | < 1 nM | Nc1nn2ccc(N3CCC[C@@H]3c3cc(F)ccc3F)nc2c1C(=O)NOCCO
8 | < 500 nM | CCOC(=O)c1c(N)nn2ccc(N3C[C@@H](O)CC3c3cc(F)ccc3F)nc12 (stereo partly specified)
9 | < 25 nM | CN(C)C(=O)c1c(N)nn2ccc(N3CCC[C@@H]3c3cc(F)ccc3F)nc12
10 | < 1 nM | CC(C)(C)ONC(=O)c1c(N)nn2ccc(N3CCC[C@@H]3c3cc(F)ccc3F)nc12
11 | < 1 nM | Nc1nn2ccc(N3CCC[C@@H]3c3cc(F)ccc3F)nc2c1C(=O)NC1CCC(O)CC1 (stereo partly specified)
